Tests used:
[1] = biological target: T1, recombinant human ALK5 (TGF-βR1) protein (Homo sapiens, UniProt P36897); assay: Biochemical ALK5 (TGF-βR1) assay to measure pKi (LANCE Ultra ULight kinase assay); conditions: apparent pKi from pIC50 by Cheng-Prusoff, read-out: ALK5 pKi (converted)
T1 construct: purchased Life Technologies PR9075A
T1 sequence (P36897 34-503): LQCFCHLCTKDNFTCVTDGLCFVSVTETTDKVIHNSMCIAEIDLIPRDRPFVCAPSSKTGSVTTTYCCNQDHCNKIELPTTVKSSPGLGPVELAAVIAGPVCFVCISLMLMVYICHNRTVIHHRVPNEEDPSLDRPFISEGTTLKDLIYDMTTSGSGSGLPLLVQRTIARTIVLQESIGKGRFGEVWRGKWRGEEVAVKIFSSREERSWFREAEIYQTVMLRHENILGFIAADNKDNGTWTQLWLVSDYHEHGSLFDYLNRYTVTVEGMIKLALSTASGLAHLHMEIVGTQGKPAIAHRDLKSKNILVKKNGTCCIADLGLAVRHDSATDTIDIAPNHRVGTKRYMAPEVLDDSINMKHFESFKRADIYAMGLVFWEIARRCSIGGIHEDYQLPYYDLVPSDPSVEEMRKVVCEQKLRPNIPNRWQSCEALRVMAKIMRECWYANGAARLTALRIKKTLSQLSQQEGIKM
Method in brief: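 Dose range 10 μM–25 pM; enzyme + compound 60 min RT; ATP added (5× stock 125 μM, 2 mM DTT); 60 min 37 °C; stop with EDTA + Eu anti-phospho-Topo IIα Thr1342 Ab; TR-FRET ex 320/340, em 665 nm. 4-param pIC50 → pKi (Cheng-Prusoff).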

[2] = system: TGF-β-stimulated SMAD3 phosphorylation in BEAS-2B cells; assay: Cellular ALK5 potency assay, inhibition of TGF-β stimulated pSMAD3 formation in BEAS-2B cells; assay type: cell-based; conditions: Homo sapiens; inhibition of TGF-β stimulated pSMAD3 formation, BEAS-2B cells; read-out: BEAS2B pIC50 (converted)
Method in brief: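 pSMAD3 was quantified by AlphaLISA in BEAS-2B lysates after 10 ng/mL TGF-β (final) for 30 min. Before stimulation, cells received compound for 1 h at 37° C in supplemented HBSS. Values are pIC50, relative to TGF-β-stimulated cells without compound.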

Compound	Ki [1] [nM]	IC50 [2] [nM]
Cc1nc(-c2n[nH]cc2-c2ccc3ncc(-c4cc5c(nn4)CCNC5)cc3n2)ccc1F [Compound 289, 3-[6-[3-(5-fluoro-6-methyl-2-pyridyl)-1H-pyrazol-4-yl]-1,5-naphthyridin-3-yl]-5,6,7,8-tetrahydropyrido[4,3-c]pyridazine]	0.398 to 3.16	200 to 1260
Cc1nc(-c2nc3ccccn3c2-c2ccc3ncc(NCCN4CCN(C(C)C)CC4)cc3n2)ccc1F [Compound 290, 6-[2-(5-fluoro-6-methyl-2-pyridyl)imidazo[1,2-a]pyridin-3-yl]-N-[2-(4-isopropylpiperazin-1-yl)ethyl]-1,5-naphthyridin-3-amine]	0.0398 to 0.316	25.1 to 158
Cc1cccc(-c2n[nH]cc2-c2ccc3nc(C4CCCN4)c(-c4cn[nH]c4)cc3c2)n1 (centres unmarked) [Compound 291, 6-[3-(6-methyl-2-pyridyl)-1H-pyrazol-4-yl]-3-(1H-pyrazol-4-yl)-2-pyrrolidin-2-yl-quinoline]	3.98 to 31.6	1580 to 10000
Cc1cccc(-c2n[nH]cc2-c2ccc3ncc(N4CCN(CCN(C)C)CC4)cc3n2)n1 [Compound 292, N,N-dimethyl-2-[4-[6-[3-(6-methyl-2-pyridyl)-1H-pyrazol-4-yl]-1,5-naphthyridin-3-yl]piperazin-1-yl]ethanamine]	< 0.0316	25.1 to 158
Cc1cccc(-c2nc3ccccn3c2-c2ccc3ncc(NCCN4CCN(C(C)C)CC4)cc3c2)n1 [Compound 293, N-(2-(4-isopropylpiperazin-1-yl)ethyl)-6-(2-(6-methylpyridin-2-yl)imidazo[1,2-a]pyridin-3-yl)quinolin-3-amine]	0.0398 to 0.316	25.1 to 158
Cc1cccc(-c2[nH]cnc2-c2ccc3ncc(C4=CCC5(CC4)CNC5)cc3c2)n1 [Compound 294, 3-(2-azaspiro[3.5]non-6-en-7-yl)-6-[5-(6-methyl-2-pyridyl)-1H-imidazol-4-yl]quinoline]	0.0398 to 0.316	25.1 to 158
Cc1cccc(-c2n[nH]cc2-c2ccc3ncc(-c4cnn(CC(=O)N5CCNCC5)c4)cc3n2)n1 [Compound 295, 2-[4-[6-[3-(6-methyl-2-pyridyl)-1H-pyrazol-4-yl]-1,5-naphthyridin-3-yl]pyrazol-1-yl]-1-piperazin-1-yl-ethanone]	0.0398 to 0.316	200 to 1260
Cc1cccc(-c2n[nH]cc2-c2ccc3ncc(N[C@@]45C[C@@H]6C[C@@H](C[C@@](N)(C6)C4)C5)cc3n2)n1 [Compound 297, rac-(5S,7R)-N1-[6-[3-(6-methyl-2-pyridyl)-1H-pyrazol-4-yl]-1,5-naphthyridin-3-yl]adamantane-1,3-diamine]	3.98 to 31.6	200 to 1260
Cc1cccc(-c2n[nH]cc2-c2ccc3ncc(N4CCN(CC#N)CC4)cc3n2)n1 [Compound 299, 2-[4-[6-[3-(6-methyl-2-pyridyl)-1H-pyrazol-4-yl]-1,5-naphthyridin-3-yl]piperazin-1-yl]acetonitrile]	< 0.0316	< 20
Cc1cccc(-c2n[nH]cc2-c2ccc3ncc(N)cc3n2)n1 [Compound 300, 6-[3-(6-methyl-2-pyridyl)-1H-pyrazol-4-yl]-1,5-naphthyridin-3-amine]	< 0.0316	< 20
Cc1cccc(-c2[nH]nnc2-c2ccc3ncc(-c4cn[nH]c4)cc3n2)n1 [Compound 301, 2-[5-(6-methyl-2-pyridyl)-1H-triazol-4-yl]-7-(1H-pyrazol-4-yl)-1,5-naphthyridine]	0.0398 to 0.316	25.1 to 158
COC(=O)N1CCc2nnc(-c3cnc4ccc(-c5c[nH]nc5-c5ccc(F)c(C)n5)nc4c3)cc2C1 [Compound 303, methyl 3-[6-[3-(5-fluoro-6-methyl-2-pyridyl)-1H-pyrazol-4-yl]-1,5-naphthyridin-3-yl]-7,8-dihydro-5H-pyrido[4,3-c]pyridazine-6-carboxylate]	0.0398 to 0.316	25.1 to 158
Cc1cccc(-c2n[nH]cc2-c2ccc3ncc(N4CC5CN(C)CC54)cc3n2)n1 (centres unmarked) [Compound 304, 7-(3-methyl-3,6-diazabicyclo[3.2.0]heptan-6-yl)-2-[3-(6-methyl-2-pyridyl)-1H-pyrazol-4-yl]-1,5-naphthyridine]	0.0398 to 0.316	25.1 to 158
Cc1cccc(-c2n[nH]cc2-c2ccc3ncc(-c4cnn(CCN)c4)cc3n2)n1 [Compound 305, 2-[4-[6-[3-(6-methyl-2-pyridyl)-1H-pyrazol-4-yl]-1,5-naphthyridin-3-yl]pyrazol-1-yl]ethanamine]	< 0.0316	25.1 to 158
CNCCn1cc(-c2cnc3ccc(-c4c(-c5cccc(C)n5)[nH]c5ncccc45)cc3c2)cn1 [Compound 306, N-methyl-2-(4-(6-(2-(6-methylpyridin-2-yl)-1H-pyrrolo[2,3-b]pyridin-3-yl)quinolin-3-yl)-1H-pyrazol-1-yl)ethan-1-amine]	< 0.0316	25.1 to 158
Cc1cccc(-c2[nH]cnc2-c2ccc3ncc(N4CCCNCC4)cc3n2)n1 [Compound 307, 7-(1,4-diazepan-1-yl)-2-(5-(6-methylpyridin-2-yl)-1H imidazol-4-yl)-1,5-naphthyridine]	0.0398 to 0.316	25.1 to 158
Cc1cccc(-c2n[nH]cc2-c2ccc3ncc(-c4cnn5c4CNCC5)cc3n2)n1 [Compound 308, 2-[3-(6-methyl-2-pyridyl)-1H-pyrazol-4-yl]-7-(4,5,6,7-tetrahydropyrazolo[1,5-a]pyrazin-3-yl)-1,5-naphthyridine]	0.0398 to 0.316	< 20
Cc1cccc(-c2[nH]cnc2-c2ccc3ncc(C4=CCN(C)C4)cc3n2)n1 [Compound 309, 7-(1-methyl-2,5-dihydropyrrol-3-yl)-2-[5-(6-methyl-2-pyridyl)-1H-imidazol-4-yl]-1,5-naphthyridine]	< 0.0316	25.1 to 158
Cc1cccc(-c2[nH]cnc2-c2ccc3ncc(-c4ccc(C(=O)OC5CCNCC5)cc4)cc3c2)n1 [Compound 310, 4-piperidyl 4-[6-[5-(6-methyl-2-pyridyl)-1H-imidazol-4-yl]-3-quinolyl]benzoate]	0.0398 to 0.316	25.1 to 158
CNCCN1CCCN(c2cnc3ccc(-c4c[nH]nc4-c4cccc(C)n4)nc3c2)CC1 [Compound 311, N-methyl-2-[4-[6-[3-(6-methyl-2-pyridyl)-1H-pyrazol-4-yl]-1,5-naphthyridin-3-yl]-1,4-diazepan-1-yl]ethanamine]	0.0398 to 0.316	200 to 1260
Cc1cccc(-c2[nH]cnc2-c2ccc3ncc(NCCN4C[C@@H](C)N[C@@H](C)C4)cc3c2)n1 [Compound 313, N-(2-((3R,5S)-3,5-dimethylpiperazin-1-yl)ethyl)-6-(5-(6-methylpyridin-2-yl)-1H-imidazol-4-yl)quinolin-3-amine]	0.0398 to 0.316	25.1 to 158
CNCCn1cc(-c2cnc3ccc(-c4nnn(Cc5ccccc5)c4-c4cccc(C)n4)cc3c2)cn1 [Compound 314, 2-[4-[6-[1-benzyl-5-(6-methyl-2-pyridyl)triazol-4-yl]-3-quinolyl]pyrazol-1-yl]-N-methyl-ethanamine]	3.98 to 31.6	1580 to 10000
Cc1cccc(-c2n[nH]cc2-c2ccc3ncc(-c4nc5n(n4)CCNC5)cc3c2)n1 [Compound 315, 6-[3-(6-methyl-2-pyridyl)-1H-pyrazol-4-yl]-3-(5,6,7,8-tetrahydro-[1,2,4]triazolo[1,5-a]pyrazin-2-yl)quinoline]	0.0398 to 0.316	25.1 to 158
Cc1cccc(-c2n[nH]cc2-c2ccc3ncc(N4CCC(N)CC4)cc3n2)n1 [Compound 316, 1-[6-[3-(6-methyl-2-pyridyl)-1H-pyrazol-4-yl]-1,5-naphthyridin-3-yl]piperidin-4-amine]	< 0.0316	25.1 to 158
Cc1cccc(-c2n[nH]cc2-c2ccc3ncc(-c4cnco4)cc3n2)n1 [Compound 317, 5-[6-[3-(6-methyl-2-pyridyl)-1H-pyrazol-4-yl]-1,5-naphthyridin-3-yl]oxazole]	0.0398 to 0.316	< 20
Cc1nc(-c2n[nH]cc2-c2ccc3ncc(N4CCCNCC4)cc3n2)ccc1F [Compound 318, 7-(1,4-diazepan-1-yl)-2-[3-(5-fluoro-6-methyl-2-pyridyl)-1H-pyrazol-4-yl]-1,5-naphthyridine]	0.0398 to 0.316	25.1 to 158
Cc1cccc(-c2[nH]cnc2-c2ccc3ncc(C4=CCN(C(C)C)C4)cc3c2)n1 [Compound 319, 3-(1-isopropyl-2,5-dihydropyrrol-3-yl)-6-[5-(6-methyl-2-pyridyl)-1H-imidazol-4-yl]quinoline]	< 0.0316	25.1 to 158
Cc1cccc(-c2n[nH]cc2-c2ccc3ncc(N4CCCN(CC(C)C)CC4)cc3n2)n1 [Compound 320, 7-(4-isobutyl-1,4-diazepan-1-yl)-2-[3-(6-methyl-2-pyridyl)-1H-pyrazol-4-yl]-1,5-naphthyridine]	0.0398 to 0.316	200 to 1260

Source: patent publication US11590116B2 (THERAVANCE BIOPHARMA R&D IP, LLC, priority 2019, dated 2023)
